Consider 24 compounds from PubChem BioAssay (NCI).

Some test systems named below: A549 NSCLC; ACHN renal; CAKI-1 renal; COLO 205 colon; OVCAR-4 ovarian; SK-MEL-28 melanoma; UACC-257 melanoma; DU-145 prostate; MCF7 breast; MDA-MB-231 breast.
Holding throughout (test): DTP human tumour cell line panel, 48 h

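Protocol summary: plate cells (96-well), add compound at 5 concentrations, incubate 48 h, interpolate endpoints linearly. The concentration for 50% growth inhibition is given as GI50. Definition used: TGI = concentration required for complete inhibition of growth.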 A value given as a limit tells only on which side of the number the result lay.

Take `CCC1(N=[N+]=[N-])C(=O)Nc2cc(C)ccc2C1=O` (stereo unspecified): the TGI is above 100 µM in the test on A549 NSCLC; 51.2 µM with ACHN renal; above 100 µM in the test on CAKI-1 renal; above 100 µM in the test on COLO 205 colon; above 100 µM in the test on OVCAR-4 ovarian; above 100 µM in the test on SK-MEL-28 melanoma. In the test on UACC-257 melanoma, this compound registered a TGI above 100 µM.

As for `Cc1cc(C)nc(Nc2nc3ccc([N+](=O)[O-])cc3[nH]2)n1`, the TGI with A549 NSCLC, in the test with ACHN renal, in the test on CAKI-1 renal, in the test on COLO 205 colon, with OVCAR-4 ovarian and with SK-MEL-28 melanoma was above 100 µM throughout. In addition, the concentration for total growth inhibition (TGI) in the test with UACC-257 melanoma is above 100 µM.

Take `COc1cc2[nH]c(-c3cccc(N(C)C)c3)cc(=O)c2cc1OC`: the TGI in the test with A549 NSCLC is above 100 µM; in the test with ACHN renal, above 100 µM; in the test with COLO 205 colon, 19.1 µM; in the test on OVCAR-4 ovarian, above 100 µM; with SK-MEL-28 melanoma it was above 100 µM; with UACC-257 melanoma it was above 100 µM.

For `[N-]=[N+]=NC1C(Br)C(=O)NC(=O)N1[C@H]1C[C@H](O)[C@@H](CO)O1` (stereo partly specified), the TGI in the test with A549 NSCLC, in the test on ACHN renal, in the test on CAKI-1 renal, in the test with COLO 205 colon, with OVCAR-4 ovarian and with SK-MEL-28 melanoma was above 100 µM each time. The same compound had a TGI in the test with UACC-257 melanoma above 100 µM. For the same compound, the GI50 with CAKI-1 renal was 66.3 µM.

Take `CC(=O)Nc1ccc(C2[C@H]3C(=O)N(c4ccc(Cc5ccc(N6C(=O)[C@@H]7ON(c8ccccc8)C(c8ccc(NC(C)=O)cc8)[C@@H]7C6=O)cc5)cc4)C(=O)[C@H]3ON2c2ccccc2)cc1` (stereo partly specified): the TGI in the test on A549 NSCLC, in the test with ACHN renal, in the test on CAKI-1 renal, in the test with COLO 205 colon, in the test with OVCAR-4 ovarian and in the test on SK-MEL-28 melanoma was above 100 µM in each case. The compound further returned a TGI with UACC-257 melanoma above 100 µM.

Turning to `NC1CC(=O)c2cc(Br)sc21` (stereo unspecified), the TGI with A549 NSCLC, in the test on ACHN renal, in the test on CAKI-1 renal, in the test on COLO 205 colon, in the test on DU-145 prostate and in the test on MCF7 breast was above 100 µM each time. Further, the TGI in the test with MDA-MB-231 breast, with SK-MEL-28 melanoma and in the test on UACC-257 melanoma was above 100 µM in each case.

On to `CC(=O)OCC1OC(n2c(=O)n(-c3ccccc3)c(=O)c3ccccc32)C(OC(C)=O)C(OC(C)=O)C1OC(C)=O` (stereo unspecified), for which the total growth inhibition concentration (TGI) in the test on A549 NSCLC, with ACHN renal, with CAKI-1 renal, in the test with COLO 205 colon, in the test on OVCAR-4 ovarian and in the test on SK-MEL-28 melanoma was above 100 µM throughout. In the test on UACC-257 melanoma, this compound yielded a TGI above 100 µM.

Turning to `CC1=C(OC2OC(CO)C(O)C(O)C2O)C(=O)C[C@H]2C1=CC[C@@H]1[C@@]2(C)C(=O)C[C@]2(C)[C@@H]([C@@](C)(O)C(=O)CCC(C)(C)O)[C@H](O)C[C@@]12C` (stereo partly specified), the TGI with A549 NSCLC, with ACHN renal, in the test on CAKI-1 renal, in the test with COLO 205 colon, in the test with DU-145 prostate and in the test with MCF7 breast was above 100 µM each time. Moreover, the concentration for total growth inhibition (TGI) in the test with MDA-MB-231 breast, in the test with OVCAR-4 ovarian, in the test with SK-MEL-28 melanoma and with UACC-257 melanoma was above 100 µM in each case.

In the case of `CCOP(=O)(OCC)/C(C#N)=C/c1ccco1`, the TGI in the test with A549 NSCLC, with ACHN renal, with CAKI-1 renal, in the test on COLO 205 colon, in the test with OVCAR-4 ovarian and with SK-MEL-28 melanoma was above 100 µM in each case. The compound also yielded a TGI in the test with UACC-257 melanoma above 100 µM.

In the case of `O=C1CCC2SC1CCC2=O`, the total growth inhibition concentration (TGI) with A549 NSCLC, in the test on ACHN renal, in the test on CAKI-1 renal, in the test with COLO 205 colon, with DU-145 prostate and with MCF7 breast was above 100 µM each time. For the same compound, the total growth inhibition concentration (TGI) in the test on MDA-MB-231 breast, in the test with OVCAR-4 ovarian, with SK-MEL-28 melanoma and in the test with UACC-257 melanoma was above 100 µM throughout.

For `CCOC(=O)CC[C@@H](NC(=O)c1ccc(N[C@@H]2c3cc4c(cc3C(c3cc(OC)c(O)c(OC)c3)C3C(=O)OC[C@@H]32)OCO4)cc1)C(=O)OCC` (stereo partly specified), the TGI in the test with ACHN renal is 0.0379 µM; with CAKI-1 renal it was 0.0539 µM; in the test with SK-MEL-28 melanoma, 0.53 µM; in the test with UACC-257 melanoma, 0.724 µM.

For `C=C[C@@]1(C)CC(=O)[C@]2(O)[C@@]3(C)[C@@H](OC(C)=O)CCC(C)(C)[C@@H]3[C@H](OC(C)=O)[C@H](OC(C)=O)[C@@]2(C)O1`, the TGI in the test on A549 NSCLC, with ACHN renal, with CAKI-1 renal, in the test on DU-145 prostate, in the test on MCF7 breast and in the test with MDA-MB-231 breast was above 100 µM throughout. In addition, the TGI with OVCAR-4 ovarian, in the test with SK-MEL-28 melanoma and with UACC-257 melanoma was above 100 µM throughout.

`N#CC12C3C4CC5C6C4C1C6C(O)(C53)N2Cc1ccccc1` (stereo unspecified): the TGI with A549 NSCLC, in the test with ACHN renal, in the test with CAKI-1 renal, with COLO 205 colon, in the test on OVCAR-4 ovarian and with SK-MEL-28 melanoma was above 100 µM throughout. In the test with UACC-257 melanoma, this compound had a TGI above 100 µM.

As to `CCN(CC)Cc1cc(Nc2c3ccccc3nc3c2[nH]c2ccccc23)ccc1O`, the concentration for total growth inhibition (TGI) in the test on A549 NSCLC was determined as 2.93 µM; with ACHN renal it was 3.53 µM; in the test on CAKI-1 renal, 4.2 µM; with COLO 205 colon, 2.19 µM; in the test on OVCAR-4 ovarian it was 3.32 µM; with SK-MEL-28 melanoma, 3.47 µM. Moreover, the concentration for total growth inhibition (TGI) in the test on UACC-257 melanoma is 4.45 µM.

With `O=c1cc2ccccc2nn1-c1ccccc1Cl`, the TGI in the test on A549 NSCLC, with ACHN renal, in the test on CAKI-1 renal, with COLO 205 colon, in the test with OVCAR-4 ovarian and in the test on SK-MEL-28 melanoma was above 100 µM each time. For the same compound, the TGI in the test on UACC-257 melanoma is above 100 µM.

Turning to `CC1=NN(C(=O)Cc2ccccc2)C(=O)/C1=C\C=C\c1ccccc1`, the TGI with A549 NSCLC, with ACHN renal, with CAKI-1 renal, with COLO 205 colon, with OVCAR-4 ovarian and in the test on SK-MEL-28 melanoma was above 100 µM each time. In the test on UACC-257 melanoma, this compound gave a total growth inhibition concentration (TGI) above 100 µM.

Take `COC(=N)C12C(N)=NC(OC)(OC)C1(C#N)C21C(=O)N(c2ccccc2)N=C1C` (stereo unspecified): the total growth inhibition concentration (TGI) with A549 NSCLC, in the test on ACHN renal, in the test with CAKI-1 renal, in the test on COLO 205 colon, with DU-145 prostate and in the test with MCF7 breast was above 100 µM each time. Moreover, the TGI with MDA-MB-231 breast, with OVCAR-4 ovarian, with SK-MEL-28 melanoma and in the test on UACC-257 melanoma was above 100 µM in each case.

For `COC(=O)CC1C(=O)OCc2c1cc1n(c2=O)Cc2c-1nc1ccccc1c2OC` (stereo unspecified), the TGI in the test with A549 NSCLC is above 100 µM; with ACHN renal, above 100 µM; in the test on CAKI-1 renal, 34.4 µM; in the test on COLO 205 colon, above 100 µM; with OVCAR-4 ovarian it was above 100 µM; with SK-MEL-28 melanoma, above 100 µM. In the test on UACC-257 melanoma, this compound had a TGI above 100 µM.

In the case of `CNC(=O)CCNC(=O)CCC(=O)OC`, the TGI in the test on A549 NSCLC, with ACHN renal, with CAKI-1 renal, with COLO 205 colon, in the test on DU-145 prostate and in the test with MCF7 breast was above 100 µM each time. For the same compound, the TGI in the test on MDA-MB-231 breast, with OVCAR-4 ovarian and in the test on SK-MEL-28 melanoma was above 100 µM each time.

On to `Cc1cc2oc(=O)[nH]c(=S)c2c(C)c1C`, for which the TGI in the test on A549 NSCLC, in the test on ACHN renal, in the test on COLO 205 colon, with OVCAR-4 ovarian, in the test on SK-MEL-28 melanoma and with UACC-257 melanoma was above 100 µM throughout.

`Cc1cc(Cl)ccc1N=NC(=O)NNc1ccc(Cl)cc1C`: the total growth inhibition concentration (TGI) in the test with A549 NSCLC is 30.6 µM; in the test on ACHN renal, 40.3 µM; with DU-145 prostate, 23.3 µM; with MDA-MB-231 breast, 26.6 µM; with OVCAR-4 ovarian it was 38.6 µM; in the test on SK-MEL-28 melanoma, 30.7 µM. The same compound displayed a total growth inhibition concentration (TGI) in the test on UACC-257 melanoma of 33.1 µM.

For the compound `COC(=O)N/N=C/c1oc(-c2cccc([N+](=O)[O-])c2)c(-c2cccc([N+](=O)[O-])c2)c1[N+](=O)[O-]`, the concentration for total growth inhibition (TGI) in the test on A549 NSCLC, in the test on ACHN renal, with COLO 205 colon, with OVCAR-4 ovarian, in the test on SK-MEL-28 melanoma and in the test on UACC-257 melanoma was above 100 µM throughout.

Regarding `COC[n+]1cc2cc(OC)c(OC)cc2c2ccc3cc(OC)c(OC)cc3c21`, the TGI in the test with A549 NSCLC, in the test with ACHN renal, in the test on CAKI-1 renal, in the test on COLO 205 colon, in the test on OVCAR-4 ovarian and in the test on SK-MEL-28 melanoma was above 100 µM in each case. The compound also gave a TGI in the test with UACC-257 melanoma above 100 µM.

For the compound `COC(=O)c1c(C(=O)OC)c2cc(C(=O)c3ccccc3)ccn2c1Cl`, the total growth inhibition concentration (TGI) with A549 NSCLC, in the test with ACHN renal, with COLO 205 colon, with OVCAR-4 ovarian and in the test on SK-MEL-28 melanoma was above 100 µM in each case.

In general, TGI refers to the concentration at which net growth stops. For orientation: GI50 means the concentration that inhibits growth by half.
